Holding throughout (assay type): functional
The subject of one test is SK-MEL-2. Kind of test: Cytotoxicity against human SK-MEL-2 cells assessed as cell growth at 10^-6 M after 48 hrs by SRB assay. To be noted: SK-MEL-2, 48 h, read-out: Activity.
Test [1] in a line: Cytotoxicity against human DU145 cells assessed as cell growth at 10^-8 M after 48 hrs by SRB assay. To be noted: DU-145, 48 h, read-out: Activity. In general terms: The SRB assay estimates cell density from bound dye.
The test system of test [2] is NCI-H322M. Kind of test: Cytotoxicity against human NCI-H322M cells assessed as cell growth at 10^-7 M after 48 hrs by SRB assay. Conditions: read-out: Activity.
Another test has as its system CCRF-CEM. The test is described as follows: Cytotoxicity against human CCRF-CEM cells assessed as cell growth at 10^-4 M after 48 hrs by SRB assay. Conditions: read-out: Activity.
For a further test, the system named is KM12. The test is described as follows: Cytotoxicity against human KM12 cells assessed as cell growth at 10^-8 M after 48 hrs by SRB assay. Conditions: KM12, 48 h, read-out: Activity.
A short description of test [3]: Cytotoxicity against human UO31 cells assessed as cell growth at 10^-7 M after 48 hrs by SRB assay. To be noted: UO-31, 48 h, read-out: Activity.
Test [4] is described as follows: Cytotoxicity against human COLO205 cells assessed as cell growth at 10^-7 M after 48 hrs by SRB assay. Conditions: COLO 205, 48 h, read-out: Activity.
The nature of test [5]: Cytotoxicity against human TK10 cells assessed as cell growth at 10^-8 M after 48 hrs by SRB assay. Conditions: TK-10, 48 h, read-out: Activity.
Test [6] is described as follows: Cytotoxicity against human RXF393 cells assessed as cell growth at 10^-6 M after 48 hrs by SRB assay. To be noted: RXF 393, 48 h, read-out: Activity.
Test [7] can be described thus: Cytotoxicity against human IGROV1 cells assessed as cell growth at 10^-7 M after 48 hrs by SRB assay. To be noted: IGROV-1, 48 h, read-out: Activity.
Test [8] in a line: Cytotoxicity against human OVCAR3 cells assessed as cell growth at 10^-8 M after 48 hrs by SRB assay. Conditions: OVCAR-3, 48 h, read-out: Activity.
The test system of test [9] is MDA-MB-435. The test is described as follows: Cytotoxicity against human MDA-MB-435 cells assessed as cell growth at 10^-6 M after 48 hrs by SRB assay. To be noted: MDA-MB-435, 48 h, read-out: Activity.
Test [10] in a line: Cytotoxicity against human SNB19 cells assessed as cell growth at 10^-4 M after 48 hrs by SRB assay. Conditions: SNB-19, 48 h, read-out: Activity.
The nature of test [11]: Cytotoxicity against human BT549 cells assessed as cell growth at 10^-8 M after 48 hrs by SRB assay. To be noted: BT-549, 48 h, read-out: Activity.
The next test relates to A549. The test is described as follows: Cytotoxicity against human A549 cells assessed as cell growth at 10^-6 M after 48 hrs by SRB assay. To be noted: A549, 48 h, read-out: Activity.
A short description of test [12]: Cytotoxicity against human UO31 cells assessed as cell growth at 10^-8 M after 48 hrs by SRB assay. To be noted: UO-31, 48 h, read-out: Activity.
The nature of test [13]: Cytotoxicity against human SW620 cells assessed as cell growth at 5 uM after 48 hrs by SRB assay. Conditions: SW-620, 48 h, read-out: Activity.
In a further test the test system is MCF7. Kind of test: Cytotoxicity against human MCF7 cells assessed as cell growth at 50 uM after 48 hrs by SRB assay. To be noted: MCF7, 48 h, read-out: Activity.
A further test concerns NCI-H460. The test is described as follows: Cytotoxicity against human NCI-H460 cells assessed as cell growth at 5 nM after 48 hrs by SRB assay. Conditions: NCI-H460, 48 h, read-out: Activity.
A further test deals with MDA-MB-468. The test is described as follows: Cytotoxicity against human MDA-MB-468 cells assessed as cell growth at 0.5 uM after 48 hrs by SRB assay. Conditions: MDA-MB-468, 48 h, read-out: Activity.
The subject of a further test is Malme-3M. Kind of test: Cytotoxicity against human MALME-3M cells assessed as cell growth at 5 nM after 48 hrs by SRB assay. Conditions: read-out: Activity.
The test system of test [14] is NCI-H322M. The test is described as follows: Cytotoxicity against human NCI-H322M cells assessed as cell growth at 50 uM after 48 hrs by SRB assay. Conditions: read-out: Activity.
Test [15] can be described thus: Cytotoxicity against human SNB19 cells assessed as cell growth at 50 uM after 48 hrs by SRB assay. Conditions: SNB-19, 48 h, read-out: Activity.
A further test relates to ACHN. Kind of test: Cytotoxicity against human ACHN cells assessed as cell growth at 0.5 uM after 48 hrs by SRB assay. To be noted: read-out: Activity.
Test [16] is described as follows: Cytotoxicity against human BT549 cells assessed as cell growth at 5 uM after 48 hrs by SRB assay. To be noted: BT-549, 48 h, read-out: Activity.
Test [17] deals with NCI-H322M. The test is described as follows: Cytotoxicity against human NCI-H322M cells assessed as cell growth at 0.5 uM after 48 hrs by SRB assay. To be noted: read-out: Activity.
Test [18] is described as follows: Cytotoxicity against human COLO205 cells assessed as cell growth at 5 uM after 48 hrs by SRB assay. To be noted: COLO 205, 48 h, read-out: Activity.
Test [19] in a line: Cytotoxicity against human LOXIMVI cells assessed as cell growth at 50 uM after 48 hrs by SRB assay. Conditions: LOX IMVI, read-out: Activity.
Test [20] can be described thus: Cytotoxicity against human UACC62 cells assessed as cell growth at 50 uM after 48 hrs by SRB assay. To be noted: UACC-62, 48 h, read-out: Activity.
The nature of test [21]: Cytotoxicity against human OVCAR4 cells assessed as cell growth at 50 uM after 48 hrs by SRB assay. To be noted: OVCAR-4, 48 h, read-out: Activity.
Test [22] is described as follows: Cytotoxicity against human SW620 cells assessed as cell growth at 50 nM after 48 hrs by SRB assay. Conditions: SW-620, 48 h, read-out: Activity.
The test system of test [23] is MDA-MB-435. The test is described as follows: Cytotoxicity against human MDA-MB-435 cells assessed as cell growth at 5 uM after 48 hrs by SRB assay. Conditions: MDA-MB-435, 48 h, read-out: Activity.
Test [24] is described as follows: Cytotoxicity against human OVCAR3 cells assessed as cell growth at 5 nM after 48 hrs by SRB assay. To be noted: OVCAR-3, 48 h, read-out: Activity.
The nature of test [25]: Cytotoxicity against human OVCAR4 cells assessed as cell growth at 50 nM after 48 hrs by SRB assay. Conditions: OVCAR-4, 48 h, read-out: Activity.
The test system of another test is U-251. Kind of test: Cytotoxicity against human U251 cells assessed as cell growth at 0.5 uM after 48 hrs by SRB assay. Conditions: U-251, 48 h, read-out: Activity.
The next test deals with A498. The test is described as follows: Cytotoxicity against human A498 cells assessed as cell growth at 5 nM after 48 hrs by SRB assay. Conditions: A498, 48 h, read-out: Activity.
The nature of test [26]: Cytotoxicity against human OVCAR8 cells assessed as cell growth at 50 nM after 48 hrs by SRB assay. Conditions: OVCAR-8, 48 h, read-out: Activity.
For a further test, the system named is 786-0. Kind of test: Cytotoxicity against human 786-0 cells assessed as cell growth at 50 nM after 48 hrs by SRB assay. Conditions: 786-0, 48 h, read-out: Activity.
A short description of test [27]: Cytotoxicity against human TK10 cells assessed as cell growth at 50 uM after 48 hrs by SRB assay. To be noted: TK-10, 48 h, read-out: Activity.
Test [28] can be described thus: Cytotoxicity against human HL-60(TB) cells assessed as cell growth at 5 uM after 48 hrs by SRB assay. Conditions: HL-60, 48 h, read-out: Activity.
The nature of test [29]: Cytotoxicity against human UACC62 cells assessed as cell growth at 5 nM after 48 hrs by SRB assay. To be noted: UACC-62, 48 h, read-out: Activity.
The test system of the next test is NCI-H23. The test is described as follows: Cytotoxicity against human NCI-H23 cells assessed as cell growth at 0.5 uM after 48 hrs by SRB assay. Conditions: NCI-H23, 48 h, read-out: Activity.

Turning to `C/C(=C(/c1ccc(O)cc1)c1ccc(OCCN2CCCC2)cc1)c1ccccc1`, the growth at 1 µM in the test on SK-MEL-2 turned out to be 99%; in [6], 87%; in the test with MDA-MB-435 [9], 87%; in the test on A549, 106%. Also, the growth at 0.01 µM in test [1] came to 98%; with KM12 it was 102%; in test [5], 96%; in [8] it was 106%; in test [11] it was 96%; in test [12], 93%. Moreover, the growth at 0.1 µM was 95% with NCI-H322M [2], 90% in [3], 96% in [4] and 101% in test [7]. In addition, the growth at 100 µM in the test on CCRF-CEM is -71%; in test [10], -74%.

For the compound `CCCCCCCCCC(=O)Oc1ccc(/C(=C(/C)c2ccccc2)c2ccc(OCCN3CCCC3)cc2)cc1`, the growth at 5 µM in [13] came out at 95%; in [16], 85%; in test [18] it was 79%; in the test on MDA-MB-435 [23], 82%; in [28] it was 94%. Moreover, the growth at 50 µM is -79% in the test with MCF7; -86% with NCI-H322M [14]; -77% in [15]; -100% in [19]; -90% in test [20]; -87% in test [21]. The growth at 50 µM in test [27] is -87%. The growth at 0.005 µM was 102% with NCI-H460; 108% in the test on Malme-3M; 108% in test [24]; 61% in the test with A498; 100% in test [29]. Also, the growth at 0.5 µM worked out at 69% in the test on MDA-MB-468; 88% in the test on ACHN; 73% in the test with NCI-H322M [17]; 67% with U-251; 71% in the test on NCI-H23. Also, the growth at 0.05 µM in [22] came to 97%; in test [25], 92%; in test [26], 101%; in the test on 786-0, 94%.

Values taken from ChEMBL document CHEMBL3774317, “Design and synthesis of novel tamoxifen analogues that avoid CYP2D6 metabolism” (Eur J Med Chem, 2016).
